# Measured values as given in PMC3949517 (Acta Crystallographica Section D: Biological Crystallography, 2014).
# Several values for one entry are separate records, joined by “and”; a condition that tells them apart may be missing. Identical values can stand only once. Bridge positions count the residues as written; N and C are the ends. Ends that are not written are not given here. Peptide text beside a SMILES is read from it. * marks the point of attachment. Biotin = O=C1N[C@H]2[C@H](CS[C@H]2CCCCC(=O)*)N1
# T1: pep54L, linear (reduced) synthetic peptide 54 (synthetic (phage library-derived), cysteine pairing not given here)
# T1 construct: also called pep54 linear form; source: synthetic peptide
# T1 chain: GACPNPWGLLCGAAGAEK(Biotin)-NH2
# T2: pep50L, linear (reduced) synthetic peptide 50 (synthetic (phage library-derived), cysteine pairing not given here)
# T2 construct: also called pep50 linear form; source: synthetic peptide
# T2 chain: GACRNPWGLTCGAAGAEK(Biotin)-NH2
# B1: FabA17λ (Fab of the A17 reactibody with the λ light-chain constant domain) (Fab, V domains shown)
# VH: QVQLQESGPGLVKPSETLSLTCAVSGYSISSGYYWGWIRQPPGKGLEWIGSIYHSGSTYYNPSLKSRVTISVDTSKNQFSLKLSSVTAADTAVYYCAGLTQSSHNDANWGQGTLVTVSS
# VL: QSVLTQPPSVSAAPGQKVTISCSGSSSNIGNNYVSWYQQLPGTAPKLLIYDNNKRPSGIPDRFSGSKSGTSATLGITGLQTGDEADYYCGTWDSSLNPVFGGGTKLTVL
# notes: as the heavy chain of m1 (HCH: A17 VH, human CH1, hinge region); natural-type λ light chain: A17 VL (identical to the VL of m1) with the J2 segment and the constant region of human λ2 light chain; also called FabA17 λ variant; source: Pichia pastoris GS115, culture medium, purified (Talon, Mono Q, Superdex 75)
# Experiments:
# [1] = system: scFvA17; assay type: binding, human
# [2] = system: recombinant Fab reactibodies (FabA17κ, FabA17λ); assay type: binding, human
# [3] = system: A17κ reactibody; assay type: binding, human
# [4] = system: A17λ reactibody; assay type: binding, human; details: for Kd: read-out: Kd (BiaCore affinity constant)
# [5] = system: A17 reactibody; details: cited from earlier work
# [6] = system: A17λ reactibody (FabA17λ); assay type: biochemical, human
# [7] = system: A17κ reactibody (FabA17κ); assay type: biochemical, human
# [8] = system: A17κ reactibody (FabA17κ); assay type: biochemical, human; remark: listed apart in the source
# [9] = system: A17λ reactibody (FabA17λ); assay type: biochemical, human; remark: listed apart in the source
# [10] = system: A17κ reactibody (FabA17κ); assay type: biochemical, human; remark: listed apart in the source
# [11] = biological target: T1, pep54L, linear (reduced) synthetic …; experiment: SPR; Biacore T200, SA sensor chip; biotinylated synthetic peptides immobilised, antibodies injected at a range of concentrations, 10 µl/min, 298 K; association and dissociation 300 s each; 1:1 binding model, affinity-analysis option; details: both partners purified
# [12] = biological target: T2, pep50L, linear (reduced) synthetic …; experiment: as above; details: both partners purified
molecule,measurement,setting,value
CRNPWGLTC (disulfide 1-9 (inferred)) [pep50],binding to scFvA17 (in words),[1],specifically bind
same,effect of phosphonylation of scFv on ELISA signals (in words),[1],significantly enhanced the ELISA signals
same,binding by recombinant Fab reactibodies (in words),[2],capable of binding
same,effect of phosphonylation of the Fabs on level of binding (in words),[2],reduced the level of binding
CC(C)C[C@H](NC(=O)CNC(=O)[C@H](Cc1c[nH]c2ccccc12)NC(=O)[C@@H]1CCCN1C(=O)[C@H](CC(N)=O)NC(=O)[C@H](CCCNC(=N)N)NC(=O)[C@H](CS)NC(=O)[C@H](C)NC(=O)CN)C(=O)N[C@H](C(=O)N[C@@H](CS)C(=O)NCC(=O)N[C@@H](C)C(=O)N[C@@H](C)C(=O)NCC(=O)N[C@@H](C)C(=O)N[C@@H](CCC(=O)O)C(=O)N[C@@H](CCCCNC(=O)CCCC[C@@H]1SC[C@@H]2NC(=O)N[C@@H]21)C(N)=O)[C@@H](C)O [50L] (H-GACRNPWGLTCGAAGAEK(Biotin)-NH2),affinity (in words),[3],high affinity
same,binding activity of A17κ compared with A17λ (in words),[3],A17κ was more active in binding either the linear or the cyclic form of pep50
same,affinity (in words),[4],high affinity
same,Kd,[4],2.3 µM
"CCOP(=O)(OCC)Oc1ccc([N+](=O)[O-])cc1 [paraoxon, O,O-Diethyl O-(4-nitrophenyl)phosphate]",reaction with A17 reactibody (in words),[5],hydrolyzing
same,"k2/KD, paraoxon",[6],1.63 ± 0.65 M–1 min–1
same,"k2/Kd, paraoxon",[6]; pH 7.4,1.6 0.6 M ^1min^1
same,"k2/KD, paraoxon",[7],1.15 ± 0.52 M–1 min–1
same,"k2/Kd, paraoxon",[7]; pH 7.4,1.2 0.5 M ^1min^1
CC(C)C[C@H](NC(=O)CNC(=O)[C@H](Cc1c[nH]c2ccccc12)NC(=O)[C@@H]1CCCN1C(=O)[C@H](CC(N)=O)NC(=O)[C@@H]1CCCN1C(=O)[C@H](CS)NC(=O)[C@H](C)NC(=O)CN)C(=O)N[C@@H](CC(C)C)C(=O)N[C@@H](CS)C(=O)NCC(=O)N[C@@H](C)C(=O)N[C@@H](C)C(=O)NCC(=O)N[C@@H](C)C(=O)N[C@@H](CCC(=O)O)C(=O)N[C@@H](CCCCNC(=O)CCCC[C@@H]1SC[C@@H]2NC(=O)N[C@@H]21)C(N)=O [54L] (H-GACPNPWGLLCGAAGAEK(Biotin)-NH2),Kd,[4],18 µM
CC(C)C[C@@H]1NC(=O)CNC(=O)[C@H](Cc2c[nH]c3ccccc23)NC(=O)[C@@H]2CCCN2C(=O)[C@H](CC(N)=O)NC(=O)[C@H](CCCNC(=N)N)NC(=O)[C@@H](NC(=O)[C@H](C)NC(=O)CN)CSSC[C@@H](C(=O)NCC(=O)N[C@@H](C)C(=O)N[C@@H](C)C(=O)NCC(=O)N[C@@H](C)C(=O)N[C@@H](CCC(=O)O)C(=O)N[C@@H](CCCCNC(=O)CCCC[C@@H]2SC[C@@H]3NC(=O)N[C@@H]32)C(N)=O)NC(=O)[C@H]([C@@H](C)O)NC1=O [50C] (H-GACRNPWGLTCGAAGAEK(Biotin)-NH2; disulfide 3-11),affinity (in words),[3],high affinity
same,binding activity of A17κ compared with A17λ (in words),[3],A17κ was more active in binding either the linear or the cyclic form of pep50
same,Kd,[3]; read-out: Kd (BiaCore affinity constant),900 nM
same,affinity (in words),[4],high affinity
p-nitrophenyl 8-methyl-8-azabicyclo[3.2.1]octylphenylphosphonate [phosphonate X],"Ea (activation-energy parameter), phosphonate X",[8],12.5 1.3 kcalmol^1
same,Kd,[8]; pH 7.4,120 µM and 150 µM and 80 µM and 130 µM
same,"k2, phosphonate X",[8]; pH 7.4,0.24 0.03 min^1
same,"Ea (activation-energy parameter), phosphonate X",[9],11.4 0.5 kcalmol^1
same,Kd,[9]; pH 7.4,110 µM and 145 µM and 170 µM and 130 µM and 180 µM
same,"k2, phosphonate X",[9]; pH 7.4,0.28 0.02 min^1
same,reaction with A17 reactibody (in words),[5],irreversibly binding
same,"rate of induced-fit stage, A17κ vs A17λ (in words)",[10],induced-fit stage is more rapid in the κ variant
CPNPWGLLC (disulfide 1-9 (inferred)) [pep54],binding to scFvA17 (in words),[1],specifically bind
same,effect of phosphonylation of scFv on ELISA signals (in words),[1],significantly enhanced the ELISA signals
same,binding by recombinant Fab reactibodies (in words),[2],capable of binding
same,effect of phosphonylation of the Fabs on level of binding (in words),[2],reduced the level of binding
CC(C)C[C@@H]1NC(=O)CNC(=O)[C@H](Cc2c[nH]c3ccccc23)NC(=O)[C@@H]2CCCN2C(=O)[C@H](CC(N)=O)NC(=O)[C@@H]2CCCN2C(=O)[C@@H](NC(=O)[C@H](C)NC(=O)CN)CSSC[C@@H](C(=O)NCC(=O)N[C@@H](C)C(=O)N[C@@H](C)C(=O)NCC(=O)N[C@@H](C)C(=O)N[C@@H](CCC(=O)O)C(=O)N[C@@H](CCCCNC(=O)CCCC[C@@H]2SC[C@@H]3NC(=O)N[C@@H]32)C(N)=O)NC(=O)[C@H](CC(C)C)NC1=O [54C] (H-GACPNPWGLLCGAAGAEK(Biotin)-NH2; disulfide 3-11),binding activity of A17λ compared with A17κ (in words),[4],A17λ was more active than A17κ
B1,Kd,[11],18 µM
same,Kd,[12],2300 nM
